Paper PMC9738727, “Purification and Characterization of Novel Anti-MRSA Peptides Produced by Brevibacillus sp. SPR-20” (Molecules, 2022)
Converted amounts (≈) assume the structure as drawn. “And” between values parts separate entries of the source, which are not always exact repeats. Identical values can stand only once. Like-named read-outs stand apart in the source and are kept apart here. Ends that are not written are not given here.

What was measured:
MRSA isolate 142 = assay: microbe, parasite or virus in culture; format: cell-based, Staphylococcus aureus
Experimental: (§1) The MIC and MBC of the purified peptides from SPR-20 were determined by broth microdilution assay following a standard guideline. S. aureus TISTR 517 and MRSA isolate 142, 1096, and 2468 as bacterial strains were cultured in MH agar at 37 °C for 18 h. […] The cells were then diluted to 5 × 10^6 CFU/mL using cation-adjusted Mueller Hinton broth (CAMHB). The diluted cell suspension (10 μL) was transferred to each well of a 96-well plate. The purified peptide in the total volume of 100 µL was added to each well to obtain the final concentrations between 0.5 and 64 µg/mL. The standard antibiotics (vancomycin and cefoxitin) (Sigma-Aldrich Co., St. Louis, MO, USA) and antibiotic-free samples were the positive and negative controls, respectively. CAMHB without tested bacteria was used as a blank. The 96-well plates were incubated at 37 °C for 24 h, and the experiment was performed in triplicate for each strain. […] Subsequently, 100 µL of each dilution was spread on MH agar and then incubated at 37 °C for 24 h.

MRSA isolate 2468 [1] = assay: microbe, parasite or virus in culture; format: cell-based, Staphylococcus aureus
Experimental: as §1

S. aureus TISTR 517 [2] = assay: microbe, parasite or virus in culture; format: cell-based, Staphylococcus aureus
Experimental: as §1

MRSA isolate 1096 = assay: microbe, parasite or virus in culture; format: cell-based, Staphylococcus aureus
Experimental: as §1

[3] = test system: S. aureus TISTR 517 and MRSA strains; assay: microbe, parasite or virus in culture; format: cell-based, Staphylococcus aureus; conditions: Staphylococcus aureus
Experimental: as §1

MRSA isolate 2468 [4] = assay: microbe, parasite or virus in culture; format: cell-based, Staphylococcus aureus; conditions: Staphylococcus aureus, 18 h, read-out: Corrected Zone of Inhibition
Experimental: (§2) The antimicrobial activity was measured by an agar well diffusion test with some modified methods. In brief, single colonies of the tested strains were suspended in 0.85% NaCl, and then the OD at 625 nm was adjusted to 0.1. The cell suspensions were spread on MH agar, and the tested samples (100 μL) were introduced into each well before incubation at 37 °C for 24 h. Each experiment was performed in three independent replicates, and the inhibition zone was measured and expressed as mean ± SD.
(§3) The agar well diffusion test was performed in triplicate for potency determination, using S. aureus TISTR 517 and MRSA isolate 2468 as the tested bacteria. […] The remaining standard and sample solutions were transferred to the other 3 wells. The plates were incubated at 37 °C for 18 h.

S. aureus TISTR 517 [5] = assay: microbe, parasite or virus in culture; format: cell-based, Staphylococcus aureus; conditions: Staphylococcus aureus, TISTR517, 18 h, read-out: Corrected Zone of Inhibition
Experimental: as §2, §3

[6] = cited from earlier work
Experimental: With the highest activity, P1 was selected for further study on its stability and mechanism of action. P1 was thermostable as it maintained nearly all activity after exposure to 100 °C or autoclave conditions. The short-chain peptide with substantial β-strand and disordered structures was an important characteristic of P1. This peptide might be refolded to active conformation after heat treatment that conferred good thermal stability. Similarly, acidocin LCHV (11 residues) produced by Lactobacillus acidophilus n.v. Er 317/402 Narine was stable at 130 °C for 90 min [27]. […] The enzymatic stability of P1 was caused by the absence of aromatic amino acids, which are the specific cleavage sites of proteinase K and α-chymotrypsin. The presence of one lysine at the core sequence of P1 might lessen the sensitivity of trypsin [29].

[7] = Staphylococcus aureus, broth microdilution, CAMHB, 37 °C, 24 h, triplicate, read-out: MIC
[8] = Staphylococcus aureus, TISTR517, 24 h

Molecule	MBC (MRSA isolate 142; isolate 142, 24 h)	MIC (MRSA isolate 142; isolate 142, 24 h)	MBC (MRSA isolate 2468 [1]; isolate 2468, 24 h)	MIC (MRSA isolate 2468 [1]; isolate 2468, 24 h)	MBC (S. aureus TISTR 517 [2]; TISTR 517, 24 h)	MIC (S. aureus TISTR 517 [2]; TISTR 517, 24 h)	MBC (MRSA isolate 1096; isolate 1096, 24 h)	MIC (MRSA isolate 1096; isolate 1096, 24 h)	further results
CO[C@@]1(NC(=O)Cc2cccs2)C(=O)N2C(C(=O)O)=C(COC(N)=O)CS[C@@H]21 [Cefoxitin, cefoxitin, reference compound]	–	–	–	–	–	–	–	–	MIC (MRSA isolate 142; [7]): > 64 mg/L; MIC (MRSA isolate 2468 [1]; [7]): > 64 mg/L; MIC (S. aureus TISTR 517 [2]; Staphylococcus aureus, TISTR517, broth microdilution, CAMHB, 37 °C, 24 h, triplicate, read-out: MIC): 2 mg/L (≈ 4.68 µM); MBC (S. aureus TISTR 517 [2]; Staphylococcus aureus, TISTR517, dilutions spread on MH agar, 37 °C, 24 h, no colony, read-out: MBC): 2 mg/L (≈ 4.68 µM); MIC (S. aureus TISTR 517 [2]; broth microdilution, CAMHB, 37 °C, 24 h, triplicate): 2 mg/L (≈ 4.68 µM); MIC (MRSA isolate 1096; [7]): > 64 mg/L; MIC ([3]; MRSA strains only, read-out: MIC): > 64 mg/L
CN[C@H](CC(C)C)C(=O)N[C@H]1C(=O)N[C@@H](CC(N)=O)C(=O)N[C@H]2C(=O)N[C@H]3C(=O)N[C@H](C(=O)N[C@H](C(=O)O)c4cc(O)cc(O)c4-c4cc3ccc4O)[C@H](O)c3ccc(c(Cl)c3)Oc3cc2cc(c3O[C@@H]2O[C@H](CO)[C@@H](O)[C@H](O)[C@H]2O[C@H]2C[C@](C)(N)[C@H](O)[C@H](C)O2)Oc2ccc(cc2Cl)[C@H]1O [Vancomycin, vancomycin]	–	–	–	–	–	–	–	–	MBC (MRSA isolate 142; Staphylococcus aureus, 24 h): 2 mg/L (≈ 1.38 µM); MIC (MRSA isolate 142; Staphylococcus aureus, 24 h): 2 mg/L (≈ 1.38 µM); MBC (MRSA isolate 2468 [1]; Staphylococcus aureus, 24 h): 2 mg/L (≈ 1.38 µM); MIC (MRSA isolate 2468 [1]; Staphylococcus aureus, 24 h): 2 mg/L (≈ 1.38 µM); MBC (S. aureus TISTR 517 [2]; [8]): 2 mg/L (≈ 1.38 µM); MIC (S. aureus TISTR 517 [2]; [8]): 2 mg/L (≈ 1.38 µM); MBC (MRSA isolate 1096; Staphylococcus aureus, 24 h): 2 mg/L (≈ 1.38 µM); MIC (MRSA isolate 1096; Staphylococcus aureus, 24 h): 2 mg/L (≈ 1.38 µM); MIC [3]: 2 µg/mL and 1.38 µM; zone of inhibition at 50 µg/mL (MRSA isolate 2468 [4]): 20.1 ± 0.29 mm; zone of inhibition at 75 µg/mL (MRSA isolate 2468 [4]): 21.2 ± 0.76 mm; zone of inhibition at 100 µg/mL (MRSA isolate 2468 [4]): 22 ± 0.57 mm; zone of inhibition at 125 µg/mL (MRSA isolate 2468 [4]): 22.7 ± 0.61 mm; zone of inhibition at 150 µg/mL (MRSA isolate 2468 [4]): 23.36 ± 0.21 mm; zone of inhibition at 50 µg/mL (S. aureus TISTR 517 [5]): 18.8 ± 0.61 mm; zone of inhibition at 75 µg/mL (S. aureus TISTR 517 [5]): 19.5 ± 0.52 mm; zone of inhibition at 100 µg/mL (S. aureus TISTR 517 [5]): 20.3 ± 0.41 mm; zone of inhibition at 125 µg/mL (S. aureus TISTR 517 [5]): 21.1 ± 0.41 mm; zone of inhibition at 150 µg/mL (S. aureus TISTR 517 [5]): 21.3 ± 0.36 mm
NVGVLNPPPLV [Acidocin LCHV, antimicrobial peptide produced by Lactobacillus acidophilus n.v; Er 317/402 Narine]	–	–	–	–	–	–	–	–	thermal stability ([6]; 130 °C for 90 min): stable; effect of trypsin, pepsin, and proteinase K on activity ([6]; according to a previous study): decreased the activity
VVLNLLVKVLKYGK [Peptide P3]	8 mg/L	4 mg/L	8 mg/L	4 mg/L	4 mg/L	4 mg/L	8 mg/L	4 mg/L	–
VVLNLVVKLLKYAK [Peptide P5]	32 mg/L	32 mg/L	32 mg/L	32 mg/L	32 mg/L	32 mg/L	32 mg/L	32 mg/L	–
VVMNLLVKVLKYVV [Peptide P2]	64 mg/L	8 mg/L	64 mg/L	8 mg/L	16 mg/L	8 mg/L	64 mg/L	8 mg/L	–
VVVNLLVKVLKYAK [Peptide P4]	16 mg/L	8 mg/L	16 mg/L	8 mg/L	8 mg/L	8 mg/L	16 mg/L	8 mg/L	–
XVXVVVKVLKYLX [Brevilaterin V, antimicrobial peptide from Brevibacillus laterosporus S62-9]	–	–	–	–	–	–	–	–	initial activity retained after heating ([6]; 100 °C for 2 h): 99%; remaining activity with pepsin, trypsin, and proteinase K [6]: more than 97%
